One experiment deals with B16-F10. The experiment is described as follows: Antitumor activity against mouse B16F10 cells xenografted in mouse assessed as reduction in tumor growth at 5 mg/kg, sc qd after 14 days relative to control. The format is functional. The note with it: 336 h, read-out: TGI.
The target in experiment [1] is Programmed cell death protein 1/Programmed cell death 1 ligand 1 (Homo sapiens, UniProt Q15116+Q9NZQ7). The experiment can be described thus: Inhibition of human PD1/PDL1 protein-protein interaction by HTRF assay. The format is protein-complex assay. (Time-resolved FRET reads energy transfer from a long-lived donor to a nearby acceptor.)
The target in experiment [2] is T1, Programmed cell death 1 ligand 1 (Homo sapiens, UniProt Q9NZQ7). The experiment is described as follows: Antagonist activity against PDL1 (unknown origin).
Another experiment relates to 4T1. The experiment is described as follows: Antitumor activity against mouse 4T1 cells xenografted in mouse assessed as reduction in tumor growth at 3 mg/kg, sc qd after 40 days relative to control. It counts as functional. The note with it: 4T1, sc, 960 h, read-out: TGI.
The subject of a further experiment is HEK293. The experiment is described as follows: Antiproliferative activity against HEK293 cells. It counts as functional, cell-based. The following applies: Homo sapiens.
The test system of a further experiment is MDA-MB-231. The experiment can be described thus: Antiproliferative activity against human MDA-MB-231 cells. The format is functional, cell-based.
The subject of experiment [3] is Splenocyte. The experiment is described as follows: Antiproliferative activity against mouse splenocytes at 100 nM relative to control. It counts as functional.
Experiment [4] deals with Splenocyte. The experiment is described as follows: Antiproliferative activity against mouse splenocytes relative to control. It counts as functional. Details: concentration or dose not given beside the values.
The subject of another experiment is CT26. The experiment is described as follows: Antitumor activity against mouse CT26 cells xenografted in mouse assessed as reduction in tumor growth at 3 mg/kg after 25 days relative to control. The note with it: CT26, 600 h, read-out: TGI. It counts as functional.
In experiment [5] the target is T1, Programmed cell death 1 ligand 1. The experiment can be described thus: Inhibition of PDL1 (unknown origin).
Experiment [6] concerns the target T2, Programmed cell death 1 ligand 2 (Homo sapiens, UniProt Q9BQ51).
T2 sequence (Q9BQ51 whole entry): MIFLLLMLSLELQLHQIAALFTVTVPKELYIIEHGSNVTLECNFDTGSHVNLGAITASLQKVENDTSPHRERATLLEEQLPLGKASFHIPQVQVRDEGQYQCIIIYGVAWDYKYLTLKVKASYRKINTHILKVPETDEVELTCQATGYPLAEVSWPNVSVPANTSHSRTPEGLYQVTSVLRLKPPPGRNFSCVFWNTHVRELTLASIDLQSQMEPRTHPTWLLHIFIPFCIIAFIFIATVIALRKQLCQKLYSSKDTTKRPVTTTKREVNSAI
The experiment can be described thus: Inhibition of PDL2 (unknown origin).

Each structure is given as a SMILES string. Bridge positions count the residues as written; N and C are the ends. Square brackets hold non-standard residues; d marks the D form. Peptide text beside a SMILES is read from it. * marks the point of attachment. ξ: configuration not given here. X1 = NC(CO)C(=O)NC(Cc1ccccc1)C(=O)NCCCCN*; ξE = NC(CCC(=O)O)C(=O)O; ξK = NCCCCC(N)C(=O)O A value given as a limit tells only on which side of the number the result lay.

T1 sequence (Q9NZQ7 whole entry): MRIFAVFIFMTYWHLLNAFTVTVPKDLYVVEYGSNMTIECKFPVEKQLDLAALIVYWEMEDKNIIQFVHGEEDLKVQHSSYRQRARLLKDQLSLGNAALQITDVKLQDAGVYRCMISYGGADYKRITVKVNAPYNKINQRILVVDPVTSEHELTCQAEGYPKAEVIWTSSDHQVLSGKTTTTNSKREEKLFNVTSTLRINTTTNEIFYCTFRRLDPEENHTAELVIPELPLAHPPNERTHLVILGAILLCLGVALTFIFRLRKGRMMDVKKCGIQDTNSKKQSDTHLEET
Sequence of Programmed cell death protein 1/Programmed cell death 1 ligand 1 (Q15116 whole entry): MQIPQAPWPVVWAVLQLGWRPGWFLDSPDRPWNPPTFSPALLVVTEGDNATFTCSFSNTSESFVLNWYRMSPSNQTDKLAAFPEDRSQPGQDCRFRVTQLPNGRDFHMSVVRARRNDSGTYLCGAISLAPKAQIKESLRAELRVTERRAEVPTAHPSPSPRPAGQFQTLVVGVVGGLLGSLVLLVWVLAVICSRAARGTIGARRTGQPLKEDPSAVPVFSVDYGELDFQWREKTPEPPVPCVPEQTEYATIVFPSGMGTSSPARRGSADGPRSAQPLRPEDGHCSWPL
Sequence of Programmed cell death protein 1/Programmed cell death 1 ligand 1 (Q9NZQ7 whole entry): as the sequence (Q9NZQ7 whole entry) above

With `C[C@@H](O)[C@H](NC(=O)[C@H](CC(N)=O)NC(=O)[C@@H](N)CO)C(=O)N[C@@H](CO)C(=O)NC(CCC(=O)NCCCCNC(=O)C(Cc1ccccc1)NC(=O)C(N)CO)C(N)=O` (some centres not stated) (H-SNTS[ξE](X1)-NH2), in the experiment with B16-F10, the inhibition in vivo at 5 mg/kg came to 64%.
One may read the IC50 as the concentration that inhibits the measured activity by half. As to `Cc1c(COc2cc(OCc3cncc(C#N)c3)c(CN(C)C(C)(CO)CO)cc2Cl)cccc1-c1ccnc(OCCCN2CCCCC2)c1Cl`, in experiment [1], the 50% inhibitory concentration (IC50) was < 10 nM.
In the case of `Cc1c(-c2ccccc2)cccc1-c1nc2c(s1)CNCC2`, in experiment [2], the IC50 is < 100 nM.
Same read-out and setting: to `O=C(/C=C/c1ccc(O)c(O)c1)O[C@H]1C[C@@](O)(C(=O)O)C[C@H](O)[C@@H]1O` belongs 36600 nM; to `Cc1c(-c2ccccc2)cccc1-c1nc2cc(CNCCO)ccc2o1`, < 100 nM; to `Cc1c(-c2ccccc2)cccc1-c1cn2nc(CNCCO)cnc2n1`, < 100 nM.
For the molecule `Cc1c(NC(=O)c2cc(CN3CCCC[C@H]3C(=O)O)cn(C)c2=O)cccc1-c1ccccc1`, in [1], the IC50 was < 100 nM.
In experiment [1], `Cc1c(/C=C/c2cc(CNC(C)(CO)C(=O)O)ccc2C(F)(F)F)cccc1-c1ccc2c(c1)OCCO2` (configuration not stated) registered a half-maximal inhibitory concentration (IC50) of 18 nM.
`CC[C@H](C)[C@H](NC(=O)[C@H](CCC(N)=O)NC(=O)[C@H](C)NC(=O)[C@H](CCCCN)NC(=O)[C@@H]1CCCN1C(=O)[C@H](C)NC(=O)[C@H](CC(C)C)NC(=O)[C@H](CCC(N)=O)NC(=O)[C@@H](NC(=O)[C@@H](NC(=O)[C@H](CCCNC(=N)N)NC(=O)[C@H](Cc1ccccc1)NC(=O)[C@H](CCCCNC(=O)[C@H](Cc1ccccc1)NC(=O)[C@H](CO)NC(=O)[C@H](CCC(=O)O)NC(=O)[C@H](CO)NC(=O)[C@@H](NC(=O)[C@H](CC(N)=O)NC(=O)[C@@H](N)CO)[C@@H](C)O)NC(=O)[C@H](Cc1ccccc1)NC(=O)[C@H](CO)NC(=O)[C@H](CCC(=O)O)NC(=O)[C@H](CO)NC(=O)[C@@H](NC(=O)[C@H](CC(N)=O)NC(=O)[C@@H](N)CO)[C@@H](C)O)C(C)C)[C@@H](C)O)C(=O)N[C@@H](CCCCN)C(=O)N[C@@H](CCC(=O)O)C(N)=O`: the inhibition in vivo at 3 mg/kg with 4T1 is 44%. In addition, the inhibition in vivo at 5 mg/kg in the experiment on B16-F10 came out at 44%. For the same molecule, the IC50 in the experiment with HEK293 amounted to 0.72 nM; in the experiment on MDA-MB-231 it was 0.41 nM.
In turn, `C[C@@H](O)[C@@H]1NC(=O)C(NC(=O)[C@@H](N)CO)CCC(=O)NCCCCC(C(=O)N[C@@H](CO)C(=O)N[C@@H](Cc2ccccc2)C(N)=O)NC(=O)[C@H](CO)NC1=O` (some centres not stated) (H-S[ξE]TS[ξK]SF-NH2; lactam 2-5) yielded an Activity in the experiment with Splenocyte [3] of 78%. Also, in the experiment on B16-F10, the inhibition in vivo at 5 mg/kg was 54%.
For `N#Cc1c(-c2ccc3c(c2)OCCO3)cccc1N1CCC(N[C@H]2C[C@@H](O)C2)CC1`, the IC50 in experiment [2] is < 100 nM.
With `N#Cc1c(NC(=O)c2ccc(CNCCO)cn2)cccc1-c1ccccc1`, the IC50 in [1] is < 10 nM.
Take `C[C@@H](O)[C@H](N)c1nnc([C@H](CCC(N)=O)NC(=O)N[C@@H](CO)C(=O)O)o1`: in the experiment with Splenocyte [4], the Activity is listed as 92%.
Regarding `NC(=O)C[C@H](NC(=O)N[C@@H](CO)C(=O)O)c1nc([C@@H](N)CO)no1`, the Activity in the experiment with Splenocyte [4] is given as 91%.
For the molecule `NC(=O)C[C@H](N)c1nc([C@@H](N)CO)no1`, the Activity in the experiment on Splenocyte [3] turned out to be 93%.
In the experiment on Splenocyte [4], `O=C(O)C[C@H]1NC(=O)N[C@H](CO)C(=O)NCCOCCOCC(=O)N[C@@H](CO)C(=O)NNC1=O` registered an Activity of 92%.
Take `N#Cc1cncc(COc2cc(O[C@H]3CCc4c(-c5ccccc5)cccc43)c(Cl)cc2CN[C@@H](CO)C(=O)O)c1`: in [2], the IC50 is < 100 nM.
In experiment [1], `Cc1c(COc2cc(OCc3cncc(C#N)c3)c(CN(C)C(CO)(CO)CO)cc2Cl)cccc1-c1cccc(OCCCN2CCC(F)(F)C2)c1C` gave an IC50 of 0.5 nM.
On the same count and under the same terms, as for `N#Cc1cccc(COc2cc(OCc3cccc(-c4ccccc4)c3Br)c(Cl)cc2CN2CCCC[C@H]2C(=O)O)c1`, the figure is 800000 nM.
The molecule `C#CC[C@H](NC(=O)N[C@H](C(=O)O)[C@@H](C)O)c1nc(-c2cnccn2)no1` had an Activity in the experiment on Splenocyte [4] of 92%.
A word on the EC50: it is the concentration giving half of the maximal effect. Turning to `C[C@@H](O)[C@H](NC(=O)N[C@@H](CC(N)=O)C(=O)NNC(=O)[C@@H](N)CO)C(=O)O`, the inhibition in vivo at 3 mg/kg in the experiment with CT26 was found to be 46%. Also, the EC50 in experiment [5] was found to be 30 nM; in [6], 40 nM. The molecule further returned an Activity with Splenocyte [3] of 68%.
`NC(=O)C[C@H](NC(=O)N[C@@H](CO)C(=O)O)c1nnc(-c2cnccn2)o1` returned an Activity in the experiment on Splenocyte [4] of 63%.
On the same count and under the same terms, as for `NCCCC[C@H](NC(=O)N[C@@H](CC(N)=O)C(=O)NNC(=O)[C@@H](N)CO)C(=O)O`, the figure is 87%.
`CCCNC(=O)CC[C@H](NC(=O)N[C@H](C(=O)O)[C@@H](C)O)c1nc([C@@H](N)CO)no1`: the Activity in the experiment with Splenocyte [3] stood at 119%.
Molecule `NCCCC[C@H](N)c1nnc([C@H](CC(N)=O)NC(=O)N[C@@H](CCC(=O)O)C(=O)O)o1` came in with an Activity with Splenocyte [4] of 79%.
